The record followed here is PubChem BioAssay (NCI).

Several values for one entry are separate records, joined by “and”; a condition that tells them apart may be missing. Identical values can stand only once.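 Dose response: 5 concentrations. Exposure: 48 h. Format: 96-well plates. Endpoint: linear interpolation; highest concentration if not reached. GI50 marks 50% less growth. The concentration for full growth arrest is given as TGI.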

Holding throughout (assay): NCI anticancer screen, dose series, 48 h
The subject of assay [1] is HCC-2998 colon.
Assay [2] deals with TK-10 renal.
Assay [3] concerns ACHN renal.
The subject of assay [4] is SNB-19 CNS.
In assay [5] the test system is CCRF-CEM leukemia.
Assay [6] relates to SK-MEL-5 melanoma.
The test system of assay [7] is COLO 205 colon.
In assay [8] the test system is OVCAR-4 ovarian.
Assay [9] deals with RPMI-8226 leukemia.

Take `CCc1oc2ccc(OC)c3c2c1C=CC=C3`: the TGI in assay [1], in assay [2], in [3], in [4], in assay [5] and in assay [6] was over 100 µM throughout. The TGI in assay [7], in assay [8] and in assay [9] was over 100 µM in each case.
For the compound `COC(=O)C(=O)C1CCCCC(C2=NC3NN=C(N)N3C2=O)C1=O` (stereo not drawn), the TGI in assay [1], in assay [2], in assay [3], in assay [4], in [5] and in assay [6] was over 100 µM each time. In addition, the TGI in assay [7] and in assay [8] was over 100 µM each time.
Take `O=C1CCC(=O)C(C(=O)CCC(=O)Nc2cccc(Cl)c2)C1` (stereo not drawn): the TGI in assay [1], in assay [2], in assay [3], in assay [4], in assay [5] and in assay [6] was over 100 µM throughout. The TGI in assay [7] and in assay [9] was over 100 µM throughout.
`Oc1[nH]c2ccc(Cl)cc2c1/C=c1/ccc2c(c1)N=C(c1cc(F)cc(F)c1)N=2`: the GI50 in assay [1] was 7.55 µM; in assay [2], 7.22 µM; in [3] it was 7.42 µM; in assay [4], over 100 µM; in assay [6], 4.07 µM; in [7], 4.28 µM. Further, the GI50 in [8] was 2.77 µM; in assay [9], 3.31 µM. The TGI in assay [1], in [2], in [3], in assay [4], in assay [6] and in assay [7] was over 100 µM in each case. The TGI in assay [8] and in assay [9] was over 100 µM in each case.
On to `CC12C(=O)N(CCN)C(=O)C1C1c3ccccc3C2c2ccccc21` (stereo not drawn), for which the TGI in [1], in assay [2], in assay [3], in [4], in assay [5] and in [6] was over 100 µM throughout. Further, the TGI in [7], in assay [8] and in assay [9] was over 100 µM in each case.
As to `N#CC12Cc3ccc4c(c3-c3cccc(c31)CCN2C(=O)c1ccccc1)OCO4` (stereo not drawn), the TGI in [1], in assay [2], in assay [3], in [4], in [5] and in [6] was over 100 µM each time. Besides, the TGI in assay [7] and in [9] was over 100 µM throughout.
For `CCOc1ccc(NC(=O)CCC(=O)NN)cc1`, the TGI in assay [1], in [2], in assay [3], in [4], in assay [5] and in [6] was over 100 µM throughout. The TGI in assay [7], in assay [8] and in assay [9] was over 100 µM in each case.
`CO[C@@]12CC(=O)/C(=C(O)\C=C\c3ccccc3)C(=O)[C@]1(OC)Cc1ccccc1O2`: the TGI is 47 µM in [1]; 73.4 µM in assay [2]; 74.2 µM in assay [3]; over 100 µM in assay [4]; 84.6 µM in assay [5]; over 100 µM in assay [6]. Further, the TGI in assay [7] and in [8] was over 100 µM each time.
`Cc1cccc(N=C2NC(=O)C(CC(=O)Nc3ccc(Cl)cc3C)S2)c1` (stereo not drawn): the TGI in assay [1], in assay [2], in assay [3], in assay [4], in [5] and in assay [6] was over 100 µM throughout. Also, the TGI in assay [7], in assay [8] and in assay [9] was over 100 µM in each case.
In the case of `CC12OC3CC(O1)C1(C=O)C4CCC5(C)C(c6ccc(=O)oc6)CCC5(O)C4CCC1(C3)O2` (stereo not drawn), the TGI in assay [1] is 2 µM; in assay [2] it was 0.472 µM; in [3], 0.348 µM; in assay [4], 1.78 µM; in assay [5] it was 1.2 µM; in assay [6], 0.328 µM. Besides, the TGI is 1.69 µM in [7], 0.308 µM in assay [8] and 0.304 µM in assay [9].
With `CC(C)[O-].CC(C)[O-].[O-]c1cccc2cccnc12.[O-]c1cccc2cccnc12.[Ti+4]`, the GI50 in assay [1] is 50.4 µM; in assay [2], 34.4 µM; in assay [3], 88.6 µM; in [4], 61.6 µM; in [5], 1.77 µM and 3.32 µM; in [6], 25.2 µM. Besides, in [7], the GI50 was 24.7 µM. The TGI in [1], in assay [2], in [3], in assay [4], in assay [5] and in [7] was over 100 µM each time.
With `O=C1C2Nc3ccccc3SC2C(=O)N1c1cccc([N+](=O)[O-])c1` (stereo not drawn), the TGI in [1], in assay [2], in [3], in assay [4], in assay [5] and in assay [6] was over 100 µM in each case. Further, the TGI in assay [7], in assay [8] and in [9] was over 100 µM each time.
As for `COC(=O)C1=Cc2c(OC)cc(OC)c(OC)c2[C@H](c2cc(OC)c(OC)cc2OC)C1C(=O)OC` (stereo partly drawn), the TGI in assay [1], in assay [2], in assay [3], in assay [4], in assay [5] and in assay [6] was over 100 µM throughout. The TGI in assay [7], in assay [8] and in assay [9] was over 100 µM throughout.
With `OC1C2C=CCC1CCC2` (stereo not drawn), the TGI in assay [2], in assay [3], in assay [4], in assay [5], in [6] and in assay [7] was over 100 µM throughout. Besides, the TGI in assay [8] and in assay [9] was over 100 µM in each case.
Take `CC1=NN(c2ccccc2)C(=O)C1N=Nc1ccc(Br)c(C)c1` (stereo not drawn): the TGI in assay [1], in [2], in assay [3], in assay [4], in assay [5] and in assay [6] was over 100 µM each time. For the same compound, the TGI in assay [7], in assay [8] and in [9] was over 100 µM in each case.
In the case of `O=c1[nH]c2c(O)cccc2c2cc3c(c(O)c12)OCO3`, the TGI in assay [1] is 56.1 µM; in assay [2], over 100 µM; in assay [3] it was 49.4 µM; in assay [4] it was 70.5 µM; in assay [5], 64.3 µM; in assay [6] it was over 100 µM. Moreover, the results for the TGI in [7], in assay [8] and in assay [9] were 34.5 µM, 43.6 µM and 92 µM, respectively.
As for `CC(C)c1cccc(C(C)C)c1NC1=CC(=O)C(=O)c2ccccc21`, the TGI in assay [1], in assay [2], in assay [4], in assay [5], in assay [6] and in assay [7] was over 100 µM throughout. This compound also yielded a TGI in assay [9] of over 100 µM.
In the case of `O=[N+]([O-])c1cc(/C=N/NS(=O)(=O)c2ccc(F)cc2)c(O)c([N+](=O)[O-])c1`, the TGI in assay [1] was over 100 µM; in assay [2], over 100 µM; in assay [3], over 100 µM; in assay [4] it was over 100 µM; in assay [5] it was over 100 µM; in [6] it was 72 µM. In addition, the figures for the TGI in assay [7], in [8] and in assay [9] were 34.5 µM, over 100 µM and over 100 µM, respectively.
As to `Cc1cc(=O)[nH]c(CNC(=O)Cc2ccccc2)n1`, the TGI in assay [1], in assay [2], in assay [3], in assay [4], in [5] and in [7] was over 100 µM throughout. Moreover, the TGI in assay [8] and in [9] was over 100 µM each time.
As to `CC(C)NC(=O)O/N=C1\CCC2[C@@H]3CC=C4C[C@@H](OC(=O)NC(C)C)CC[C@]4(C)C3CC[C@]12C` (stereo partly drawn), the TGI in assay [1] was determined as 5.06 µM; in assay [2] it was 3.15 µM; in assay [3], 2.17 µM; in assay [4] it was 6.05 µM; in [5] it was 5.03 µM; in assay [7], 1.29 µM. Also, the figures for the TGI in assay [8] and in assay [9] were 3.5 µM and 2.96 µM, respectively.
Turning to `CCOC(=O)c1c(C(F)(F)F)oc2c1ccc1nc3nonc3nc12`, the TGI in assay [1] stood at 47.6 µM; in assay [2], 36.4 µM; in assay [3], 29.4 µM; in assay [4] it was 38.2 µM; in assay [5] it was 5.69 µM; in [6] it was 26.7 µM. Besides, the values for the TGI in assay [7], in [8] and in assay [9] were 55.1 µM, 24.9 µM and over 42.3 µM, respectively.
In the case of `Cc1cc2c(cc1C)[n+]([O-])c(-c1c(Cl)cccc1Cl)c(N)[n+]2[O-]`, the TGI in assay [1] is over 100 µM; in [2], over 100 µM; in [3], over 100 µM; in [4] it was over 100 µM; in assay [6], 41.7 µM; in [7], 38.4 µM. Besides, the TGI in assay [8] and in assay [9] was over 100 µM throughout.
In the case of `NNC(=S)N/N=C/C(Cl)=C(\Cl)C(=O)O`, the TGI in [1], in [2], in assay [3], in [4], in assay [5] and in [6] was over 100 µM each time. The TGI in [8] and in assay [9] was over 100 µM in each case.
With `COc1ccc(-c2cncn2-c2cc(OC)c(OC)c(OC)c2)cc1F`, the GI50 is 0.0101 µM in [1]; 18.4 µM in assay [2]; under 0.0146 µM in [4]; under 0.0296 µM in assay [5]; under 0.01 µM in assay [6]; under 0.0122 µM in assay [7]. The GI50 in assay [8] is 1.19 µM; in assay [9] it was under 0.01 µM. Also, the TGI in assay [1] was 13.4 µM; in [2], over 100 µM; in assay [4], over 100 µM; in assay [5], over 100 µM; in assay [6], 13.1 µM; in [8], over 100 µM. The compound further registered a TGI in assay [9] of 12.2 µM.
With `Nn1c(N=Nc2c(O)[nH]c3ccccc23)n[nH]c1=S`, the TGI in assay [1], in assay [2], in assay [3], in assay [4], in [5] and in assay [7] was over 100 µM in each case. Further, the TGI in assay [8] and in assay [9] was over 100 µM each time.
Regarding `Cc1cc(C)c2[s+]snc2c1`, the TGI in assay [1], in assay [2], in assay [3], in [4], in [5] and in assay [6] was over 100 µM each time. For the same compound, the TGI in assay [7] and in [8] was over 100 µM throughout.
In the case of `C[N+]1=c2c3cccc4cccc(c(=O)n2CCC1)c43`, the TGI came out at 56.4 µM in [2]; 51.8 µM in [3]; 28.9 µM in assay [5]; 32.5 µM in assay [6]; 32.2 µM in [7]; 42.9 µM in assay [8]. The TGI in assay [9] came out at 52.3 µM.
`C=C1CC(C/C=C(\C)CC2CC(=C)C(=O)O2)OC1=O` (stereo not drawn): the TGI in assay [1], in assay [2], in assay [3], in assay [4], in assay [5] and in [6] was over 100 µM each time. For the same compound, the TGI in [7] and in assay [8] was over 100 µM each time.
`N#C/C(=C\c1ccc(O)cc1O)C(N)=O`: the TGI in assay [1] is over 100 µM; in assay [2] it was over 100 µM; in [3], over 100 µM; in assay [4], over 100 µM; in assay [5] it was over 100 µM; in assay [7], 26.5 µM. Further, the TGI in assay [8] and in assay [9] was over 100 µM in each case.
Turning to `CCOC(=O)N1CCC(=O)C[C@@H]1C/C=C/P1(=O)O[C@H](c2ccccc2)C(C)N1C(C)C` (stereo partly drawn), the TGI in assay [1], in assay [2], in assay [3], in [4], in assay [6] and in [8] was over 100 µM throughout. The compound further yielded a TGI in [9] of over 100 µM.
